{
  "source": "patent US11351165B2",
  "about": "“Agent that increases the expression of the opioid kappa 1 for the treatment of cancer” (LDN Pharma Limited, priority 2017, dated 2022)",
  "type_in_all_cases": "cell-based",
  "key": {"OPRK1 [1]": {"tested_on": "OPRK1", "test": "Level of expression of OPRK1 by immunoblotting in A549 cells", "conditions": "A549 lung cancer cells, 1 nM to 10 μM for 48 h", "experimental": "(§1) In order to determine the effect of 6-β-naltrexol or naltrexone on the level of expression of OPRK1, A549 lung cancer or HCT116 colon cancer cells were seeded onto 6-well plates at a density of 2×10^5 cell/well, and allowed to adhere overnight. Cells were then cultured in the presence of naltrexone or 6-β-naltrexol at concentrations of 1 nM, 10 nM, 100 nM, 1 μM or 10 μM for a further 48 h. Cells were then harvested and processed for measurements of OPRK1, opioid receptor-μ1 (OPRM1) and GAPDH using standard immunoblotting techniques."}, "OPRK1 [2]": {"tested_on": "OPRK1", "test": "Level of expression of OPRK1 by immunoblotting in HCT116 cells", "conditions": "HCT116 colon cancer cells, 1 nM to 10 μM for 48 h", "experimental": "as §1"}, "A549 cells": {"tested_on": "A549 cells", "test": "Priming with 6-β-naltrexol, then chemotherapy agent; cell number and viability by trypan blue counting, A549", "conditions": "FIG. 2c", "experimental": "(§2) The impact of combining 6-β-naltrexol with other chemotherapy agents was tested by culturing cells according to a treatment schedule that involved two phases of treatment. The first phase involved priming with 10 nM 6-β-naltrexol or 10 μM 6-β-naltrexol for 48 h, before treatment with another drug for a further 48 h. A549 and HCT116 cells were seeded into 6-well plates at a density of 2×10^5 cells/well and left to adhere overnight. Media was removed after 48 h, and cells were rinsed gently with drug-free medium. Fresh culture medium that contained gemcitabine (GEM) or oxaliplatin (OXP) was then added to the cells. The concentrations of the chemotherapy agents used were approximately ¼ IC50, as established previously [Liu W M, Fowler D W, Smith P, Dalgleish A G. Pre-treatment with chemotherapy can enhance the antigenicity and immunogenicity of tumours by promoting adaptive immune responses. Br J Cancer. 2010 Jan. 5; 102(1):115-23. doi: 10.1038/sj.bjc.6605465.]. Cells were then left for a further 48 h before assessment of cell number of viability by cell counting using trypan blue dye as a way of discriminating live and dead cells. Cytostasis was indicated by a reduction in cell number and no associated reduction in cell viability."}, "HCT116 cells": {"tested_on": "HCT116 cells", "test": "Priming with 6-β-naltrexol, then chemotherapy agent; cell number and viability by trypan blue counting, HCT116", "conditions": "FIG. 2d", "experimental": "as §2"}, "[3]": {"conditions": "10 nM or 10 μM 6-β-naltrexol 48 h, then gemcitabine or oxaliplatin at approx. 1/4 IC50 for 48 h"}, "[4]": {"conditions": "10 nM or 10 μM 6-β-naltrexol alone (6BN-0)"}},
  "data": [
    {"smiles": "Oc1ccc2c3c1OC1[C@H](O)CC[C@@]4(O)[C@@H](C2)N(CC2CC2)CC[C@]314", "note": "(stereo partly drawn) [6-β-naltrexol, 17-(Cyclopropylmethyl)-4,5-epoxymorphinan-3,6 beta,14-triol]", "values": [
      {"measurement": "level of expression of OPRK1", "setting": "OPRK1 [1]", "result": "increase the level of expression of ORPK1"},
      {"measurement": "level of expression of OPRK1", "setting": "OPRK1 [2]", "result": "increases the level of expression of OPRK1"},
      {"measurement": "cytotoxic effect of chemotherapeutic agents after priming", "setting": "A549 cells; [3]", "result": "cytotoxic effect of both chemotherapeutic agents is increased"},
      {"measurement": "cytotoxicity of the agent alone", "setting": "A549 cells; [4]", "result": "absence of any independent increase in cytotoxicity"},
      {"measurement": "cytotoxic effect of chemotherapeutic agents after priming", "setting": "HCT116 cells; [3]", "result": "cytotoxic effect of both chemotherapeutic agents is increased"},
      {"measurement": "cytotoxicity of the agent alone", "setting": "HCT116 cells; [4]", "result": "absence of any independent increase in cytotoxicity"}
    ]},
    {"smiles": "O=C1CC[C@@]2(O)[C@H]3Cc4ccc(O)c5c4[C@@]2(CCN3CC2CC2)[C@H]1O5", "note": "[naltrexone, reference compound]", "values": [
      {"measurement": "level of expression of OPRK1", "setting": "OPRK1 [1]", "result": "increase the level of expression of ORPK1"},
      {"measurement": "level of expression of OPRK1", "setting": "OPRK1 [2]", "result": "down-regulates the level of expression of OPRK1"}
    ]}
  ]
}
